Data as given in patent US20060069132A1, “Azolecarboxamide herbicides” (priority 2004, published 2006).

Experiments:
blackgrass = assay: Test B postemergence herbicide test; format: in vivo, Alopecurus myosuroides; details: postemergence, visual rating, scale 0 (no effect) to 100 (complete control)
In short: (§1)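 Visual control ratings, 0–100 versus untreated controls, taken after 13 to 15 days in the greenhouse. Blackgrass received a postemergence spray at the 1- to 4-leaf stage (2–18 cm); ducksalad, umbrella sedge and barnyardgrass were flooded-paddy treated at 2 leaves.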

wild oat = assay: Test B postemergence herbicide test; format: in vivo, Avena fatua; details: postemergence, visual rating, scale 0 (no effect) to 100 (complete control)
In short: (§2)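 Formulated test chemicals went onto postemergence plants measuring 2 to 18 cm, at one to four leaves. For the paddy assay, species had reached two leaves. Scoring took place 13–15 days later by eye, relative to untreated plants, using 0 for no effect up to 100 for full control.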

giant foxtail = assay: Test B pre-/postemergence herbicide test; format: in vivo, Setaria faberi; details: for Plant response rating, Foxtail, Giant: preemergence; for Foxtail, Giant plant response rating: postemergence, visual rating, scale 0 (no effect) to 100 (complete control)
In short: (§3)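 Plants compared with untreated controls 13–15 days post-treatment and given a visual 0–100 injury score. Applications: preemergence to seeds; postemergence at 1- to 4-leaf (2–18 cm); paddy species flooded, 2-leaf stage. Vehicle non-phytotoxic, surfactant included.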

velvetleaf = assay: Test B pre-/postemergence herbicide test; format: in vivo, Abutilon theophrasti; details: for Plant response rating, Velvetleaf: preemergence; for Velvetleaf plant response rating: postemergence, visual rating, scale 0 (no effect) to 100 (complete control)
In short: as §3

rice [1] = assay: Test C flooded paddy test; format: in vivo, Oryza sativa
In short: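 Injury scored visually against controls on a 0 (no effect) to 100 (complete control) scale, 12 to 14 days after treatment in greenhouse. Flooded paddy plants treated at 2-leaf stage; postemergence plants at 1- to 4-leaf stage, 2 to 18 cm tall.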

barnyardgrass [2] = assay: Test C flooded paddy test; format: in vivo, Echinochloa crus-galli
In short: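 Greenhouse test with a 12–14 day hold after application and visual comparison with controls. Emerged plants were 1- to 4-leaf stage (2–18 cm) when sprayed postemergence, and the paddy barnyardgrass was at 2 leaves under flooded conditions. 100 = complete control.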

rice [3] = assay: Test B flooded paddy test; format: in vivo, Oryza sativa; details: 1000 g ai/ha, visual rating, scale 0 to 100 (0 no effect, 100 complete control), 13 to 15 days
In short: as §2

lambsquarters = assay: Test B pre-/postemergence herbicide test; format: in vivo, Chenopodium album; details: for Plant response rating, Lambsquarters: preemergence; for Lambsquarters plant response rating: postemergence, visual rating, scale 0 (no effect) to 100 (complete control)
In short: as §3

ducksalad [4] = assay: Test C flooded paddy test; format: in vivo, Heteranthera limosa
Surinam grass = assay: Test B pre-/postemergence herbicide test; format: in vivo, Urochloa decumbens; details: for Plant response rating, Surinam Grass: preemergence; for Surinam Grass plant response rating: postemergence, visual rating, scale 0 (no effect) to 100 (complete control)
In short: as §3

[5] = test system: smallflower umbrella sedge; assay: Test C flooded paddy test; format: in vivo, Cyperus difformis
pigweed = assay: Test B pre-/postemergence herbicide test; format: in vivo, Amaranthus retroflexus; details: for Plant response rating, Pigweed: preemergence; for Pigweed plant response rating: postemergence, visual rating, scale 0 (no effect) to 100 (complete control)
In short: as §3

barnyardgrass [6] = assay: Test B pre-/postemergence herbicide test; format: in vivo, Echinochloa crus-galli; details: for Plant response rating, Barnyardgrass: preemergence; for Barnyardgrass plant response rating: postemergence, visual rating, scale 0 (no effect) to 100 (complete control)
In short: (§4)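 Response was scored visually 13 to 15 days after treatment against untreated greenhouse controls, 0 meaning no effect and 100 complete control. Formulations (solvent mixture plus surfactant) went onto soil after planting, onto foliage of 1- to 4-leaf plants, and onto 2-leaf plants in a flooded paddy set including rice and barnyardgrass.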

cocklebur = assay: Test B pre-/postemergence herbicide test; format: in vivo, Xanthium strumarium; details: for Plant response rating, Cocklebur: preemergence; for Cocklebur plant response rating: postemergence, visual rating, scale 0 (no effect) to 100 (complete control)
In short: as §4

morningglory = assay: Test B pre-/postemergence herbicide test; format: in vivo, Ipomoea coccinea; details: for Plant response rating, Morningglory: preemergence; for Morningglory plant response rating: postemergence, visual rating, scale 0 (no effect) to 100 (complete control)
In short: as §4

[7] = test system: small flower umbrella sedge; assay: Test B flooded paddy test; format: in vivo, Cyperus difformis; details: 1000 g ai/ha, visual rating, scale 0 to 100 (0 no effect, 100 complete control), 13 to 15 days
In short: as §1

rice [8] = assay: Test B pre-/postemergence herbicide test; format: in vivo, Oryza sativa; details: preemergence
In short: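 Greenhouse pot assay with simultaneous preemergence (treated seed) and postemergence (2–18 cm seedlings) applications of surfactant-containing, non-phytotoxic solvent formulations. Response scored visually 13–15 days later on a 0–100 scale, 100 meaning complete control.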

wheat = assay: Test B postemergence herbicide test; format: in vivo, Triticum aestivum; parameters: key to Wheat plant response rating: 0 = no effect, 100 = complete control; details: postemergence, 500 g ai/ha; visual rating, scale 0 (no effect) to 100 (complete control)
In short: as §2

barnyardgrass [9] = assay: Test B flooded paddy test; format: in vivo, Echinochloa crus-galli; details: 1000 g ai/ha, visual rating, scale 0 to 100 (0 no effect, 100 complete control), 13 to 15 days
In short: as §1

ducksalad [10] = assay: Test B flooded paddy test; format: in vivo, Heteranthera limosa; details: 1000 g ai/ha, visual rating, scale 0 to 100 (0 no effect, 100 complete control), 13 to 15 days
In short: as §1

corn = assay: Test B pre-/postemergence herbicide test; format: in vivo, Zea mays; details: for Plant response rating, Corn: preemergence; for Corn plant response rating: postemergence, visual rating, scale 0 (no effect) to 100 (complete control)
In short: as §3

large crabgrass = assay: Test B pre-/postemergence herbicide test; format: in vivo, Digitaria sanguinalis; details: for Plant response rating, Crabgrass, Large: preemergence; for Crabgrass, Large plant response rating: postemergence, visual rating, scale 0 (no effect) to 100 (complete control)
In short: as §3

[11] = 500 g ai/ha, visual rating 0-100, 0 no effect, 100 complete control
[12] = 125 g ai/ha, 0 to 100 scale, 0 is no effect, 100 is complete control
[13] = 62 g ai/ha, scale 0 to 100 (0 no effect, 100 complete control)
[14] = 125 g ai/ha, scale 0 to 100 (0 no effect, 100 complete control)
[15] = 250 g ai/ha, scale of 0 to 100, 0 is no effect, 100 is complete control
[16] = 500 g ai/ha, visual rating after 12 to 14 days, scale 0 to 100 (0 no effect, 100 complete control)

CCn1nc(C(C)(C)C)cc1C(=O)Nc1cc(C(=O)NCCOC)ccn1 [Compound 161]
Blackgrass plant response rating (blackgrass; 125 g ai/ha): 40
Blackgrass plant response rating (blackgrass; 500 g ai/ha): 40
Oat, Wild plant response rating (wild oat; 125 g ai/ha): 30
Oat, Wild plant response rating (wild oat; 500 g ai/ha): 40
Plant response rating, Foxtail, Giant (giant foxtail; [11]): 100
Foxtail, Giant plant response rating (giant foxtail; 125 g ai/ha): 20
Foxtail, Giant plant response rating (giant foxtail; 500 g ai/ha): 30
Plant response rating, Foxtail, Giant (giant foxtail; [12]): 20
Plant response rating, Velvetleaf (velvetleaf; [11]): 70
Velvetleaf plant response rating (velvetleaf; 125 g ai/ha): 20
Velvetleaf plant response rating (velvetleaf; 500 g ai/ha): 50
Plant response rating, Velvetleaf (velvetleaf; [12]): 20
Rice plant response rating (rice [1]; [13]): 0
Rice plant response rating (rice [1]; [14]): 10
Rice plant response rating (rice [1]; [15]): 60
Plant response rating, Rice (rice [1]; [16]): 65
Barnyardgrass plant response rating (barnyardgrass [2]; [13]): 0
Barnyardgrass plant response rating (barnyardgrass [2]; 125 g ai/ha, scale of 0 to 100, 0 is no effect, 100 is complete control): 0
Barnyardgrass plant response rating (barnyardgrass [2]; [15]): 30
Plant response rating, Barnyardgrass (barnyardgrass [2]; [16]): 75
Rice plant response rating (rice [3]): 40
Plant response rating, Lambsquarters (lambsquarters; [11]): 100
Lambsquarters plant response rating (lambsquarters; 125 g ai/ha): 70
Lambsquarters plant response rating (lambsquarters; 500 g ai/ha): 70
Plant response rating, Lambsquarters (lambsquarters; [12]): 100
Ducksalad plant response rating (ducksalad [4]; [13]): 30
Ducksalad plant response rating (ducksalad [4]; [14]): 65
Ducksalad plant response rating (ducksalad [4]; [15]): 80
Plant response rating, Ducksalad (ducksalad [4]; [16]): 90
Plant response rating, Surinam Grass (Surinam grass; [11]): 60
Surinam Grass plant response rating (Surinam grass; 125 g ai/ha): 20
Surinam Grass plant response rating (Surinam grass; 500 g ai/ha): 20
Plant response rating, Surinam Grass (Surinam grass; [12]): 10
Sedge, Umbrella plant response rating [5, 13]: 0
Sedge, Umbrella plant response rating [5, 14]: 0
Sedge, Umbrella plant response rating [5, 15]: 25
Plant response rating, Sedge, Umbrella [5, 16]: 40
Plant response rating, Pigweed (pigweed; [11]): 100
Pigweed plant response rating (pigweed; 125 g ai/ha): 20
Pigweed plant response rating (pigweed; 500 g ai/ha): 60
Plant response rating, Pigweed (pigweed; [12]): 100
Plant response rating, Barnyardgrass (barnyardgrass [6]; [11]): 100
Barnyardgrass plant response rating (barnyardgrass [6]; 125 g ai/ha): 10
Barnyardgrass plant response rating (barnyardgrass [6]; 500 g ai/ha): 10
Plant response rating, Barnyardgrass (barnyardgrass [6]; [12]): 50
Plant response rating, Cocklebur (cocklebur; [11]): 0
Cocklebur plant response rating (cocklebur; 125 g ai/ha): 20
Cocklebur plant response rating (cocklebur; 500 g ai/ha): 30
Plant response rating, Cocklebur (cocklebur; [12]): 0
Plant response rating, Morningglory (morningglory; [11]): 40
Morningglory plant response rating (morningglory; 125 g ai/ha): 20
Morningglory plant response rating (morningglory; 500 g ai/ha): 20
Plant response rating, Morningglory (morningglory; [12]): 10
Sedge, Umbrella plant response rating [7]: 60
Plant response rating, Rice (rice [8]; [11]): 40
Plant response rating, Rice (rice [8]; [12]): 0
Wheat plant response rating (wheat): 10
Barnyardgrass plant response rating (barnyardgrass [9]): 80
Ducksalad plant response rating (ducksalad [10]): 80
Plant response rating, Corn (corn; [11]): 10
Corn plant response rating (corn; 125 g ai/ha): 0
Corn plant response rating (corn; 500 g ai/ha): 0
Plant response rating, Corn (corn; [12]): 0
Plant response rating, Crabgrass, Large (large crabgrass; [11]): 100
Crabgrass, Large plant response rating (large crabgrass; 125 g ai/ha): 0
Crabgrass, Large plant response rating (large crabgrass; 500 g ai/ha): 10
Plant response rating, Crabgrass, Large (large crabgrass; [12]): 80
